Laboratory results published in PubChem BioAssay (NCI).
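Each compound was tested at five concentrations against cells in 96-well plates for 48 hours. GI50 marks 50% less growth. At the TGI there is no net growth.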

Key:
Assay in all cases: NCI tumour cell line growth inhibition, 48 h
OVCAR-4 ovarian = tested on: OVCAR-4 ovarian
HOP-92 NSCLC = tested on: HOP-92 NSCLC
NCI-H460 lung = tested on: NCI-H460 lung
PC-3 prostate = tested on: PC-3 prostate
K-562 leukemia = tested on: K-562 leukemia
CAKI-1 renal = tested on: CAKI-1 renal
KM12 colon = tested on: KM12 colon
SNB-75 CNS = tested on: SNB-75 CNS
T-47D breast = tested on: T-47D breast
SK-MEL-5 melanoma = tested on: SK-MEL-5 melanoma
MCF7 breast = tested on: MCF7 breast
UO-31 renal = tested on: UO-31 renal
U251 CNS = tested on: U251 CNS
HS 578T breast = tested on: HS 578T breast
SNB-19 CNS = tested on: SNB-19 CNS
M14 melanoma = tested on: M14 melanoma
MOLT-4 leukemia = tested on: MOLT-4 leukemia
SR leukemia = tested on: SR leukemia
NCI/ADR-RES ovarian = tested on: NCI/ADR-RES ovarian
TK-10 renal = tested on: TK-10 renal
HOP-62 NSCLC = tested on: HOP-62 NSCLC
A549 NSCLC = tested on: A549 NSCLC
UACC-62 melanoma = tested on: UACC-62 melanoma
LOX IMVI melanoma = tested on: LOX IMVI melanoma
UACC-257 melanoma = tested on: UACC-257 melanoma
NCI-H226 lung = tested on: NCI-H226 lung
786-0 renal = tested on: 786-0 renal
CCRF-CEM leukemia = tested on: CCRF-CEM leukemia
NCI-H23 lung = tested on: NCI-H23 lung
ACHN renal = tested on: ACHN renal
A498 renal = tested on: A498 renal
BT-549 breast = tested on: BT-549 breast
MALME-3M melanoma = tested on: MALME-3M melanoma
HCT-116 colon = tested on: HCT-116 colon
SK-OV-3 ovarian = tested on: SK-OV-3 ovarian
OVCAR-3 ovarian = tested on: OVCAR-3 ovarian
RXF 393 renal = tested on: RXF 393 renal
RPMI-8226 leukemia = tested on: RPMI-8226 leukemia
SW-620 colon = tested on: SW-620 colon
IGROV1 ovarian = tested on: IGROV1 ovarian
SF-268 CNS = tested on: SF-268 CNS
HCT-15 colon = tested on: HCT-15 colon
NCI-H522 lung = tested on: NCI-H522 lung
SF-539 CNS = tested on: SF-539 CNS
OVCAR-5 ovarian = tested on: OVCAR-5 ovarian
EKVX NSCLC = tested on: EKVX NSCLC
SK-MEL-2 melanoma = tested on: SK-MEL-2 melanoma
COLO 205 colon = tested on: COLO 205 colon
HT29 colon = tested on: HT29 colon
MDA-MB-435 = tested on: MDA-MB-435
SF-295 CNS = tested on: SF-295 CNS
OVCAR-8 ovarian = tested on: OVCAR-8 ovarian
MDA-MB-231 breast = tested on: MDA-MB-231 breast
SN12C renal = tested on: SN12C renal
SK-MEL-28 melanoma = tested on: SK-MEL-28 melanoma
HCC-2998 colon = tested on: HCC-2998 colon
DU-145 prostate = tested on: DU-145 prostate
HL-60(TB) leukemia = tested on: HL-60(TB) leukemia

With `O=C1CCCn2c(nc3ccccc32)N1` the TGI (OVCAR-4 ovarian) was > 100 µM, the TGI (HOP-92 NSCLC) was > 100 µM and the TGI (NCI-H460 lung) was > 100 µM. For the same compound, the TGI (PC-3 prostate) was > 100 µM, the TGI (K-562 leukemia) was > 100 µM and the TGI (CAKI-1 renal) was > 100 µM. The TGI (KM12 colon) was > 100 µM, the TGI (SNB-75 CNS) was > 100 µM and the TGI (T-47D breast) was > 100 µM. For the same compound, the TGI (SK-MEL-5 melanoma) was > 100 µM, the TGI (MCF7 breast) was > 100 µM and the TGI (UO-31 renal) was > 100 µM. The TGI (U251 CNS) was > 100000 nM, the TGI (HS 578T breast) was > 100 µM and the TGI (SNB-19 CNS) was > 100 µM. For the same compound, the TGI (M14 melanoma) was > 100 µM, the TGI (MOLT-4 leukemia) was > 100 µM and the TGI (SR leukemia) was > 100 µM. The TGI (NCI/ADR-RES ovarian) was > 100 µM, the TGI (TK-10 renal) was > 100 µM and the TGI (HOP-62 NSCLC) was > 100 µM. The TGI (A549 NSCLC) was > 100 µM, the TGI (UACC-62 melanoma) was > 100 µM and the TGI (LOX IMVI melanoma) was > 100000 nM. For the same compound, the TGI (UACC-257 melanoma) was > 100 µM, the TGI (NCI-H226 lung) was > 100 µM and the TGI (786-0 renal) was > 100 µM. For the same compound, the TGI (CCRF-CEM leukemia) was > 100 µM, the TGI (NCI-H23 lung) was > 100 µM and the TGI (ACHN renal) was > 100 µM. The TGI (A498 renal) was > 100 µM, the TGI (BT-549 breast) was > 100 µM and the TGI (MALME-3M melanoma) was > 100 µM. For the same compound, the TGI (HCT-116 colon) was > 100000 nM, the TGI (SK-OV-3 ovarian) was > 100 µM and the TGI (OVCAR-3 ovarian) was > 100 µM. For the same compound, the TGI (RXF 393 renal) was > 100 µM, the TGI (RPMI-8226 leukemia) was > 100 µM and the TGI (SW-620 colon) was > 100 µM. For the same compound, the TGI (IGROV1 ovarian) was > 100 µM, the TGI (SF-268 CNS) was > 100 µM and the TGI (HCT-15 colon) was > 100 µM. For the same compound, the TGI (NCI-H522 lung) was > 100000 nM, the TGI (SF-539 CNS) was > 100 µM and the TGI (OVCAR-5 ovarian) was > 100 µM. For the same compound, the TGI (EKVX NSCLC) was > 100 µM, the TGI (SK-MEL-2 melanoma) was > 100 µM and the TGI (COLO 205 colon) was > 100 µM. The TGI (HT29 colon) was > 100 µM, the TGI (MDA-MB-435) was > 100 µM and the TGI (SF-295 CNS) was > 100 µM. The TGI (OVCAR-8 ovarian) was > 100 µM and the TGI (MDA-MB-231 breast) was > 100 µM.

In the case of `COc1cc(/C=C/C(=O)c2cc(OC)c(OC)c(OC)c2)ccc1Oc1nc2c(c(=O)n(C)c(=O)n2C)n1C`, the GI50 (OVCAR-4 ovarian) is reported as 2490 nM, the TGI (OVCAR-4 ovarian) is reported as > 100 µM and the GI50 (SN12C renal) is reported as 2240 nM. The TGI (SN12C renal) was 7.79 µM, the GI50 (HOP-92 NSCLC) was 2090 nM and the TGI (HOP-92 NSCLC) was 5.84 µM. It also gave a GI50 (NCI-H460 lung) of 2240 nM, a TGI (NCI-H460 lung) of 6.37 µM and a GI50 (K-562 leukemia) of 2290 nM. It also gave a TGI (K-562 leukemia) of 8.23 µM, a GI50 (CAKI-1 renal) of 2220 nM and a TGI (CAKI-1 renal) of 7.92 µM. The GI50 (KM12 colon) was 1620 nM, the TGI (KM12 colon) was 3.16 µM and the GI50 (SK-MEL-28 melanoma) was 2570 nM. It also gave a TGI (SK-MEL-28 melanoma) of 7.03 µM, a GI50 (SNB-75 CNS) of 1770 nM and a TGI (SNB-75 CNS) of 7.81 µM. It also gave a GI50 (T-47D breast) of 4.39 µM, a TGI (T-47D breast) of 65.4 µM and a GI50 (SK-MEL-5 melanoma) of 1750 nM. The TGI (SK-MEL-5 melanoma) was 3.33 µM, the GI50 (MCF7 breast) was 2200 nM and the TGI (MCF7 breast) was 27.6 µM. For the same compound, the GI50 (UO-31 renal) was 1600 nM, the TGI (UO-31 renal) was 3.1 µM and the GI50 (U251 CNS) was 1280 nM. The TGI (U251 CNS) was 2600 nM, the GI50 (HS 578T breast) was 7.93 µM and the TGI (HS 578T breast) was > 100 µM. For the same compound, the GI50 (SNB-19 CNS) was 2710 nM, the TGI (SNB-19 CNS) was 13.5 µM and the GI50 (M14 melanoma) was 1870 nM. For the same compound, the TGI (M14 melanoma) was 4.55 µM, the GI50 (MOLT-4 leukemia) was 2290 nM and the TGI (MOLT-4 leukemia) was 6.34 µM. For the same compound, the GI50 (SR leukemia) was 1210 nM, the TGI (SR leukemia) was 4.89 µM and the GI50 (NCI/ADR-RES ovarian) was 2960 nM. The TGI (NCI/ADR-RES ovarian) was > 100 µM, the GI50 (HOP-62 NSCLC) was 2630 nM and the TGI (HOP-62 NSCLC) was 5.89 µM. It also gave a GI50 (A549 NSCLC) of 2200 nM, a TGI (A549 NSCLC) of 6.52 µM and a GI50 (UACC-62 melanoma) of 1810 nM. For the same compound, the TGI (UACC-62 melanoma) was 3.61 µM, the GI50 (LOX IMVI melanoma) was 1140 nM and the TGI (LOX IMVI melanoma) was 2640 nM. It also gave a GI50 (UACC-257 melanoma) of 2050 nM, a TGI (UACC-257 melanoma) of 4.63 µM and a GI50 (NCI-H226 lung) of 2980 nM. The TGI (NCI-H226 lung) was 8.43 µM, the GI50 (786-0 renal) was 1630 nM and the TGI (786-0 renal) was 3.26 µM. It also gave a GI50 (CCRF-CEM leukemia) of 1970 nM, a TGI (CCRF-CEM leukemia) of 6.48 µM and a GI50 (NCI-H23 lung) of 1850 nM. It also gave a TGI (NCI-H23 lung) of 4.27 µM, a GI50 (ACHN renal) of 2930 nM and a TGI (ACHN renal) of 8.06 µM. For the same compound, the GI50 (HCC-2998 colon) was 1840 nM, the TGI (HCC-2998 colon) was 3.35 µM and the GI50 (A498 renal) was 2510 nM. For the same compound, the TGI (A498 renal) was 10.2 µM, the GI50 (BT-549 breast) was 1560 nM and the TGI (BT-549 breast) was 3.02 µM. The GI50 (DU-145 prostate) was 3.92 µM, the TGI (DU-145 prostate) was 15.5 µM and the GI50 (HCT-116 colon) was 684 nM. It also gave a TGI (HCT-116 colon) of 2060 nM, a GI50 (SK-OV-3 ovarian) of 3.73 µM and a TGI (SK-OV-3 ovarian) of 35.5 µM. It also gave a GI50 (OVCAR-3 ovarian) of 2370 nM, a TGI (OVCAR-3 ovarian) of 4.88 µM and a GI50 (RXF 393 renal) of 2030 nM. The TGI (RXF 393 renal) was 3.65 µM, the GI50 (RPMI-8226 leukemia) was 1200 nM and the TGI (RPMI-8226 leukemia) was 4.91 µM. It also gave a GI50 (SW-620 colon) of 1600 nM, a TGI (SW-620 colon) of 3.46 µM and a GI50 (IGROV1 ovarian) of 2500 nM. For the same compound, the TGI (IGROV1 ovarian) was 5.35 µM, the GI50 (SF-268 CNS) was 3.29 µM and the TGI (SF-268 CNS) was 10.2 µM. For the same compound, the GI50 (HL-60(TB) leukemia) was 2170 nM, the TGI (HL-60(TB) leukemia) was 5.32 µM and the GI50 (HCT-15 colon) was 2560 nM. For the same compound, the TGI (HCT-15 colon) was > 100 µM, the GI50 (NCI-H522 lung) was 1430 nM and the TGI (NCI-H522 lung) was 2810 nM. It also gave a GI50 (SF-539 CNS) of 2730 nM, a TGI (SF-539 CNS) of 7.74 µM and a GI50 (OVCAR-5 ovarian) of 2900 nM. For the same compound, the TGI (OVCAR-5 ovarian) was 7.41 µM, the GI50 (EKVX NSCLC) was 26.5 µM and the TGI (EKVX NSCLC) was > 100 µM. The GI50 (SK-MEL-2 melanoma) was 3.35 µM, the TGI (SK-MEL-2 melanoma) was 7.78 µM and the GI50 (COLO 205 colon) was 1910 nM. For the same compound, the TGI (COLO 205 colon) was 3.62 µM, the GI50 (HT29 colon) was 1870 nM and the TGI (HT29 colon) was 3.9 µM. The GI50 (SF-295 CNS) was 2650 nM, the TGI (SF-295 CNS) was 13 µM and the GI50 (OVCAR-8 ovarian) was 1730 nM. The TGI (OVCAR-8 ovarian) was 5.2 µM, the GI50 (MDA-MB-231 breast) was 2550 nM and the TGI (MDA-MB-231 breast) was 20.3 µM.
